pIC50: −log10 of the molar value. Bridge positions count the residues as written; N and C are the ends. Square brackets hold non-standard residues; d marks the D form. Peptide text beside a SMILES is read from it. I, II: the chains in the order shown. dTic = O=C(O)[C@H]1Cc2ccccc2CN1; NMeL = CN[C@@H](CC(C)C)C(=O)O
Test system: HIV-1 NL4-3
Format: cell-based
Conditions: X4-tropic HIV-1 NL4-3, P4-CCR5 cells
From the text: P4-CCR5 indicator cells (Charneau et al., 1994; Journal of Molecular Biology 241, 651-662) expressing the primary CD4 receptor and both major HIV-1 entry cofactors CXCR4 and CCR5, were used to evaluate whether the oligomeric peptides according to the invention are potent inhibitors of HIV-1 infection. These cells contain the β-galactosidase reporter gene under the control of the HIV-1 promoter. Thus, activation of the β-galactosidase reporter gene allows to measure the efficiency of HIV-1 infection and thus to quantitate the potency of HIV-1 inhibitors (Detheux M. et al., 2000; Journal of Experimental Medicine 192, 1501-1508; Muinch et al., 2002; Antimicrobial Agents and Chemotherapy 46, 982-990).
To perform a typical infection assay, P4-CCR5 cells (Charneau et al., 1994; Journal of Molecular Biology 241, 651-662; Charneau et al., Virology. 1994 205, 247-53) were kept in RPMI 1640 medium supplemented with 10 volume % FCS. This cell line coexpresses CD4 and both HIV-1 coreceptors CCR5 and CXCR4 and contains the β-galactosidase gene under the control of the HIV-1 promoter. Virus stocks were generated by the calcium coprecipitation method as described (Detheux et al., 3 Exp Med. 192:1501-8; 2000), and the p24 antigen levels were quantitated with an HIV p24 ELISA kit obtained through the NIH AIDS Reagent Program. Cells were seeded in flat-bottomed 96-well dishes, cultured overnight, and incubated with the different doses of peptide for 2 h before infection with virus containing 1 ng of p24 antigen in a total volume of […] of medium. After overnight incubation, cells were washed twice and cultivated in fresh culture medium without inhibitory peptide. Three days after infection the cells were lysed, and infectivity was quantitated using the Galacto-Light Plus™ chemiluminescence reporter assay kit (Tropix, Bedford, Mass.) as recommended by the manufacturer. All infections were performed in quintuplicate.
Below, the IC50 values of peptides of the invention obtained from the described infection assay are provided.

Row | Compound | pIC50
1 | CC[C@H](C)[C@H](NC(=O)[C@H](C)NC(=O)[C@H](CCC(=O)O)NC(=O)[C@@H](N)CC(C)C)C(=O)N1CCC[C@H]1C(=O)N[C@@H](CCSC)C(=O)N[C@@H](CSSC[C@H](NC(=O)[C@H](CCSC)NC(=O)[C@@H]1CCCN1C(=O)[C@@H](NC(=O)[C@H](C)NC(=O)[C@H](CCC(=O)O)NC(=O)[C@@H](N)CC(C)C)[C@@H](C)CC)C(=O)N[C@H](C(=O)N1CCC[C@H]1C(=O)N1CCC[C@H]1C(=O)N[C@@H](CCC(=O)O)C(=O)N[C@@H](Cc1ccccc1)C(=O)N[C@@H](CC(C)C)C(=O)N[C@@H](Cc1ccccc1)C(=O)NCC(=O)N[C@@H](CCCCN)C(=O)N1CCC[C@H]1C(=O)N[C@@H](Cc1ccccc1)C(=O)N[C@H](C(=O)N[C@@H](Cc1ccccc1)C(=O)O)C(C)C)[C@@H](C)CC)C(=O)N[C@H](C(=O)N1CCC[C@H]1C(=O)N1CCC[C@H]1C(=O)N[C@@H](CCC(=O)O)C(=O)N[C@@H](Cc1ccccc1)C(=O)N[C@@H](CC(C)C)C(=O)N[C@@H](Cc1ccccc1)C(=O)NCC(=O)N[C@@H](CCCCN)C(=O)N1CCC[C@H]1C(=O)N[C@@H](Cc1ccccc1)C(=O)N[C@H](C(=O)N[C@@H](Cc1ccccc1)C(=O)O)C(C)C)[C@@H](C)CC [VIR-577] (I: H-LEAIPMCIPPEFLFGKPFVF-OH / II: H-LEAIPMCIPPEFLFGKPFVF-OH; disulfide I:7-II:7) | 5.49
2 | CC[C@H](C)[C@H](NC(=O)[C@H](CCCCN)NC(=O)[C@H](CCC(=O)O)NC(=O)[C@@H](N)CC(C)C)C(=O)N1CCC[C@H]1C(=O)N[C@@H](CSSC[C@H](NC(=O)[C@@H]1CCCN1C(=O)[C@@H](NC(=O)[C@H](CCCCN)NC(=O)[C@H](CCC(=O)O)NC(=O)[C@@H](N)CC(C)C)[C@@H](C)CC)C(=O)N[C@@H](CO)C(=O)N[C@H](C(=O)N1CCC[C@H]1C(=O)N1CCC[C@@H]1C(=O)N[C@@H](CCC(=O)O)C(=O)N[C@H](C(=O)N[C@@H](C)C(=O)N[C@@H](Cc1ccccc1)C(=O)N[C@@H](CC(N)=O)C(=O)N[C@@H](CCCCN)C(=O)N1CCC[C@H]1C(=O)N[C@@H](Cc1ccccc1)C(=O)N[C@H](C(=O)N[C@@H](Cc1ccccc1)C(=O)O)C(C)C)C(C)C)[C@@H](C)CC)C(=O)N[C@@H](CO)C(=O)N[C@H](C(=O)N1CCC[C@H]1C(=O)N1CCC[C@@H]1C(=O)N[C@@H](CCC(=O)O)C(=O)N[C@H](C(=O)N[C@@H](C)C(=O)N[C@@H](Cc1ccccc1)C(=O)N[C@@H](CC(N)=O)C(=O)N[C@@H](CCCCN)C(=O)N1CCC[C@H]1C(=O)N[C@@H](Cc1ccccc1)C(=O)N[C@H](C(=O)N[C@@H](Cc1ccccc1)C(=O)O)C(C)C)C(C)C)[C@@H](C)CC [VIR-705, (LEKIPCSIPpEVAFNKPFVF)2] (I: H-LEKIPCSIP[dP]EVAFNKPFVF-OH / II: H-LEKIPCSIP[dP]EVAFNKPFVF-OH; disulfide I:6-II:6) | 6.32
3 | CC[C@H](C)[C@H](NC(=O)[C@H](C)NC(=O)[C@H](CCC(=O)O)NC(=O)[C@@H](N)CC(C)C)C(=O)N1CCC[C@H]1C(=O)N[C@@H](CSSC[C@H](NC(=O)[C@@H]1CCCN1C(=O)[C@@H](NC(=O)[C@H](C)NC(=O)[C@H](CCC(=O)O)NC(=O)[C@@H](N)CC(C)C)[C@@H](C)CC)C(=O)NCC(=O)N[C@H](C(=O)N1CCC[C@H]1C(=O)N1CCC[C@@H]1C(=O)N[C@@H](CCC(=O)O)C(=O)N[C@H](C(=O)N1Cc2ccccc2C[C@@H]1C(=O)N[C@@H](Cc1ccccc1)C(=O)N[C@@H](CC(N)=O)C(=O)N[C@@H](CCCCN)C(=O)N1CCC[C@H]1C(=O)N[C@@H](Cc1ccccc1)C(=O)N[C@H](C(=O)N[C@@H](Cc1ccccc1)C(=O)O)C(C)C)C(C)C)[C@@H](C)CC)C(=O)NCC(=O)N[C@H](C(=O)N1CCC[C@H]1C(=O)N1CCC[C@@H]1C(=O)N[C@@H](CCC(=O)O)C(=O)N[C@H](C(=O)N1Cc2ccccc2C[C@@H]1C(=O)N[C@@H](Cc1ccccc1)C(=O)N[C@@H](CC(N)=O)C(=O)N[C@@H](CCCCN)C(=O)N1CCC[C@H]1C(=O)N[C@@H](Cc1ccccc1)C(=O)N[C@H](C(=O)N[C@@H](Cc1ccccc1)C(=O)O)C(C)C)C(C)C)[C@@H](C)CC [VIR-706, (LEAIPCGIPpEV(D-Tic)FNKPFVF)2] (I: H-LEAIPCGIP[dP]EV[dTic]FNKPFVF-OH / II: H-LEAIPCGIP[dP]EV[dTic]FNKPFVF-OH; disulfide I:6-II:6; N-terminus and C-terminus assumed) | 7.13
4 | CC[C@H](C)[C@H](NC(=O)[C@H](C)NC(=O)[C@H](CCC(=O)O)NC(=O)[C@H](CC(C)C)NC)C(=O)N1CCC[C@H]1C(=O)N[C@@H](CSSC[C@H](NC(=O)[C@@H]1CCCN1C(=O)[C@@H](NC(=O)[C@H](C)NC(=O)[C@H](CCC(=O)O)NC(=O)[C@H](CC(C)C)NC)[C@@H](C)CC)C(=O)N[C@@H](CO)C(=O)N[C@H](C(=O)N1CCC[C@H]1C(=O)N1CCC[C@H]1C(=O)N[C@@H](CCC(=O)O)C(=O)N[C@@H](Cc1ccccc1)C(=O)N[C@@H](CC(C)C)C(=O)N[C@@H](Cc1ccccc1)C(=O)NCC(=O)N[C@@H](CCCCN)C(=O)N1CCC[C@H]1C(=O)N[C@@H](Cc1ccccc1)C(=O)N[C@H](C(=O)N[C@@H](Cc1ccccc1)C(=O)O)C(C)C)[C@@H](C)CC)C(=O)N[C@@H](CO)C(=O)N[C@H](C(=O)N1CCC[C@H]1C(=O)N1CCC[C@H]1C(=O)N[C@@H](CCC(=O)O)C(=O)N[C@@H](Cc1ccccc1)C(=O)N[C@@H](CC(C)C)C(=O)N[C@@H](Cc1ccccc1)C(=O)NCC(=O)N[C@@H](CCCCN)C(=O)N1CCC[C@H]1C(=O)N[C@@H](Cc1ccccc1)C(=O)N[C@H](C(=O)N[C@@H](Cc1ccccc1)C(=O)O)C(C)C)[C@@H](C)CC [VIR-712] (I: H-[NMeL]EAIPCSIPPEFLFGKPFVF-OH / II: H-[NMeL]EAIPCSIPPEFLFGKPFVF-OH; disulfide I:6-II:6; C-terminus assumed) | 6.71
5 | I: H-LEAIPMSIPPEFLFGKPFVFKG-OH / II: H-LEAIPMSIPPEFLFGKPFVF (amide I:21-II:C) [VIR-574] | 5.51

Source: patent publication US20070123465A1, “Oligomeric peptides and their use for the treatment of hiv infections” (IPF PHARMACEUTICALS GMBH, priority 2004, published 2007)
